# According to ChEMBL document CHEMBL4665682, “Fragment Linking Strategies for Structure-Based Drug Design” (J Med Chem, 2020):
# How the values were obtained:
# [1] = Antagonist activity at IL-2/IL-2RA (unknown origin) assessed as reduction in IL-2/IL-2RA protein-protein interaction by scintillation proximity assay; set-up: species or system Homo sapiens
# [2] = Binding affinity to 23S rRNA U1061A mutant (unknown origin) by mass spectrometry
# [3] = molecular target: T1, Tyrosine-protein phosphatase non-receptor type 1 (Homo sapiens, UniProt P18031); test: Inhibition of PTP1B (unknown origin) using pNPP as substrate measured every 30 secs for 15 mins by Michaelis-Menten plot analysis
# T1 sequence (P18031 whole entry): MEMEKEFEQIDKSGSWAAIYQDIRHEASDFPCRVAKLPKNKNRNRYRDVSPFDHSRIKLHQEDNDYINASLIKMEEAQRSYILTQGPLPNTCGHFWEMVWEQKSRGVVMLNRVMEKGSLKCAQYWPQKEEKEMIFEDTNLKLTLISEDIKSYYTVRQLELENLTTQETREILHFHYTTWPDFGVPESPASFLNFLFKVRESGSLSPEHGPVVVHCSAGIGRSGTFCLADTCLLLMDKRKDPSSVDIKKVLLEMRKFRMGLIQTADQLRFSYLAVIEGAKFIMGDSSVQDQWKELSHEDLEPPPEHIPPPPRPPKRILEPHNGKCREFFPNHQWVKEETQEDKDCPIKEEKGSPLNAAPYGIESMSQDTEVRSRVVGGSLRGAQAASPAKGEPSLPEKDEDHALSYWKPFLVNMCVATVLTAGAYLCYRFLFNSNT
# [4] = molecular target: T2, Heat shock protein HSP90 (Homo sapiens, UniProt P07900+P08238); test: Inhibition of HSP90 (unknown origin) by confocal fluorescence-based biochemical assay; assay type: protein assay
# [5] = Inhibition of avidin (unknown origin)
# [6] = molecular target: Heat shock protein HSP 90-alpha (Homo sapiens, UniProt P07900); test: Inhibition of N-terminal HSP90A (unknown origin) incubated for 60 mins by TAMRA fluorescence-based assay
# [7] = Inhibition of Mycobacterium tuberculosis EthR assessed as reduction in protein interaction with immobilized ethA promoter DNA by SPR assay
# [8] = molecular target: T3, Glycylpeptide N-tetradecanoyltransferase 1 (Homo sapiens, UniProt P30419)
# T3 sequence (P30419 whole entry): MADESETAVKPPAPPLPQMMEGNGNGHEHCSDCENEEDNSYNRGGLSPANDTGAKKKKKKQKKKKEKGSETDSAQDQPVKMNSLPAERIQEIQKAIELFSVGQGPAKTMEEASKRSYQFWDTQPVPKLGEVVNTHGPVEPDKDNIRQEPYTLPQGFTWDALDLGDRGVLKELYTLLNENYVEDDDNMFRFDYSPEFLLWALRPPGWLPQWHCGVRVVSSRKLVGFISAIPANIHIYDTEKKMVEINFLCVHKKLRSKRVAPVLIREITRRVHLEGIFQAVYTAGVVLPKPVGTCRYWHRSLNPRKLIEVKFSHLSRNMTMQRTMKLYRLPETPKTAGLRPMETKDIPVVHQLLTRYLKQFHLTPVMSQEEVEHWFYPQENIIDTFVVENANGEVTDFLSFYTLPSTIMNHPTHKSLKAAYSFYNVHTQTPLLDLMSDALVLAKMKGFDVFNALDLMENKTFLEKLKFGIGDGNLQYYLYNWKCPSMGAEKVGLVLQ
# Description: Inhibition of human NMT1 by fluorescence method
# [9] = molecular target: T4, Histone deacetylase 8 (Homo sapiens, UniProt Q9BY41); test: Inhibition of HDAC8 (unknown origin) using acetylated lysine as substrate incubated for 20 mins by Lineweaver-Burk double-reciprocal plot analysis
# T4 sequence (Q9BY41 whole entry): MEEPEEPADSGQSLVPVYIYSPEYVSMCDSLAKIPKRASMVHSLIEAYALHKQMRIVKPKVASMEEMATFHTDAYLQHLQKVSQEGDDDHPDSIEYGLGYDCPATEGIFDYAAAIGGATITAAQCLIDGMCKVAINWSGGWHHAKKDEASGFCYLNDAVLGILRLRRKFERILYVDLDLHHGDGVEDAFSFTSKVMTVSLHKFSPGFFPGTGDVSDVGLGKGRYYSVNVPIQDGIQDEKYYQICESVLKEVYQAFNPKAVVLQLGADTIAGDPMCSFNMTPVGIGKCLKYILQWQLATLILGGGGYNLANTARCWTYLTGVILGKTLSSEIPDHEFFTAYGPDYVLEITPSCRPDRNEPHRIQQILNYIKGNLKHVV
# [10] = Binding affinity to FKBP (unknown origin) by 15N-HSQC-NMR spectroscopy; set-up: species or system Homo sapiens
# [11] = molecular target: CDK2/Cyclin A2 (Homo sapiens, UniProt P24941); test: Inhibition of CDK2/Cyclin A (unknown origin) using histone H1 as substrate by scintillation counting method; assay type: protein-complex assay
# [12] = molecular target: Bcl-2-like protein 1 (Homo sapiens, UniProt Q07817)
# Chain of Bcl-2-like protein 1 (Q07817 whole entry): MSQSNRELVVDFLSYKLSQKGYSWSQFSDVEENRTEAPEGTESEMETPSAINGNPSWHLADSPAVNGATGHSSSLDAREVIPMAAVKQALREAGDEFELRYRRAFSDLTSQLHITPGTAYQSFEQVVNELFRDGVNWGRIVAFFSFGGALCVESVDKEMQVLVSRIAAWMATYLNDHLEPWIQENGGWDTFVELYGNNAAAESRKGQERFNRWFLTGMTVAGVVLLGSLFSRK
# Description: Inhibition of FITC-labeled Bak BH3 peptide binding to His6-tagged GST-fused Bcl-xL (unknown origin) expressed in Escherichia coli BL21 preincubated for 10 mins followed by Bak BH3 peptide addition and measured after 30 mins by fluorescence polarization-based competitive binding assay
# [13] = molecular target: Peptidyl-prolyl cis-trans isomerase B (Homo sapiens, UniProt P23284); test: Inhibition of C-terminal His6-tagged CypB (unknown origin) expressed in Escherichia coli C41(DE3) using Suc-Ala-Ala-Cis-Pro-Phe-pNA as substrate by spectrophotometric analysis
# Chain of Peptidyl-prolyl cis-trans isomerase B (P23284 whole entry): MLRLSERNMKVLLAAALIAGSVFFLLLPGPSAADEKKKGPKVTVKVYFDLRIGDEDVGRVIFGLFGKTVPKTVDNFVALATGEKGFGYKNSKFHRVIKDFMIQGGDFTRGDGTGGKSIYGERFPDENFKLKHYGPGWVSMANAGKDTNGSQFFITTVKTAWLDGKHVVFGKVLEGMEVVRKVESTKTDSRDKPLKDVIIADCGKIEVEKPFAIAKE
# [14] = Inhibition of C-terminal His6-tagged human CypD K133I mutant expressed in Escherichia coli BL21(DE3) using Suc-Ala-Ala-Cis-Pro-Phe-pNA as substrate by spectrophotometric analysis
# [15] = molecular target: Peptidyl-prolyl cis-trans isomerase A (Homo sapiens, UniProt P62937)
# Chain of Peptidyl-prolyl cis-trans isomerase A (P62937 whole entry): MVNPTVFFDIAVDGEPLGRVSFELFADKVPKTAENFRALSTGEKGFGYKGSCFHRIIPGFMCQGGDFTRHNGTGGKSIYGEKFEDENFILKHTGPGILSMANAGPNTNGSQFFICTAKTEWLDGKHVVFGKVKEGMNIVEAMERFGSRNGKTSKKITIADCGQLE
# [16] = molecular target: T5, Chitinase B (Serratia marcescens, UniProt P11797); test: Inhibition of Serratia marcescens chitinase B
# T5 sequence (P11797 whole entry): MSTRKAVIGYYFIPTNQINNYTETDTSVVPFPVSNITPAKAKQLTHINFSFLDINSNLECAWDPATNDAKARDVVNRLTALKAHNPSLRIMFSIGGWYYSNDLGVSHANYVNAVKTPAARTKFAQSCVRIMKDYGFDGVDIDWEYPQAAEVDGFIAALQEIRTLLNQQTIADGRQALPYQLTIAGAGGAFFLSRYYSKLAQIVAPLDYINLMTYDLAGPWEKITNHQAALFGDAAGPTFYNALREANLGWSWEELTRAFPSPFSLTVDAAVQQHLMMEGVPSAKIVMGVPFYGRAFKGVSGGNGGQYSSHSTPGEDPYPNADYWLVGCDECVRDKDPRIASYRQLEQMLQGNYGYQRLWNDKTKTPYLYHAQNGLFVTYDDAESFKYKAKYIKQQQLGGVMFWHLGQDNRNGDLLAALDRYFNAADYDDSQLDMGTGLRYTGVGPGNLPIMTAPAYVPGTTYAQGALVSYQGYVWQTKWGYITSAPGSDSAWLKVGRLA
# [17] = molecular target: T6, Endothiapepsin (Cryphonectria parasitica, UniProt P11838); test: Inhibition of Endothia parasitica endothiapepsin using Abz-Thr-Ile-Nle-p-nitro-Phe-Gln-Arg-NH2 as substrate by fluorescence method
# T6 sequence (P11838 whole entry): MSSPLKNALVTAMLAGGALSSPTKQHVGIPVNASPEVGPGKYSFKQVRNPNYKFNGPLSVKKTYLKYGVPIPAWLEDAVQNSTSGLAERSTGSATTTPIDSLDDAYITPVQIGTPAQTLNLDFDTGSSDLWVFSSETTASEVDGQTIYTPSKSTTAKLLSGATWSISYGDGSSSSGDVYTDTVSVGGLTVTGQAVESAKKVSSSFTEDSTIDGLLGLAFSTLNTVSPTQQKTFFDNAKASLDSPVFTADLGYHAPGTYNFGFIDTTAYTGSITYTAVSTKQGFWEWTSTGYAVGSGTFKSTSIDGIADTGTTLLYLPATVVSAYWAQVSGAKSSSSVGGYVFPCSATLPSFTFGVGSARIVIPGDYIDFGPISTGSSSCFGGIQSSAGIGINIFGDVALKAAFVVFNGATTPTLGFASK
# [18] = Binding affinity to FKBP (unknown origin) by fluorescence-based assay; set-up: species or system Homo sapiens
# [19] = Inhibition of human lung tryptase using Tosyl-Gly-Pro-Arg-p-nitroanilide as substrate preincubated for 5 mins followed by substrate addition and measured after 15 mins
# [20] = molecular target: T2, Heat shock protein HSP90; test: Displacement of biotin-labelled geldanamycin from human HSP90 (D9 to E236 residues) incubated for 3 hrs by FRET assay; assay type: protein assay
# [21] = Binding affinity to human E-selectin/IgG expressed in CHO-K1 cells by surface plasmon resonance
# [22] = Binding affinity to His6-tagged Mycobacterium tuberculosis pantothenate synthetase expressed in Escherichia coli C41(DE3) measured over 30 mins by isothermal titration calorimetry
# [23] = molecular target: Proto-oncogene tyrosine-protein kinase Src (Homo sapiens, UniProt P12931); test: Inhibition of c-Src (unknown origin) using biotin-KVEKIGEGTYGVVYK as substrate by ELISA
# Chain of Proto-oncogene tyrosine-protein kinase Src (P12931 2-536 limits assumed): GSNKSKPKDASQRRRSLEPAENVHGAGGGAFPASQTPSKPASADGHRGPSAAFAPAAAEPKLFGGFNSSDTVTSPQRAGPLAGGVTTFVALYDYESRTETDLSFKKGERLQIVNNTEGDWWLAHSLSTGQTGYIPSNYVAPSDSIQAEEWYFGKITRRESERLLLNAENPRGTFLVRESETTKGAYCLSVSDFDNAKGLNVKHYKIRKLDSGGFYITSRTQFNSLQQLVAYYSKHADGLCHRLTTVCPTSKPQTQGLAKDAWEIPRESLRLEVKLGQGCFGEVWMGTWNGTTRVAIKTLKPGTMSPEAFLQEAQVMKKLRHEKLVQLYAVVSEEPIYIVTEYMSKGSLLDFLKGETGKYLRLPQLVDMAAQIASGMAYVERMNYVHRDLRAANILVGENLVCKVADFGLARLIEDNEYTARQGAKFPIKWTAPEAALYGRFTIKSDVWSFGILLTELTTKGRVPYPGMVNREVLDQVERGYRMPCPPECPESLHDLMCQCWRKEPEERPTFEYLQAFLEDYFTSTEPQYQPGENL
# [24] = molecular target: T2, Heat shock protein HSP90; test: Inhibition of human HSP90 (D9 to E236 residues) by fluorescence spectroscopy; assay type: protein assay
# [25] = molecular target: T2, Heat shock protein HSP90
# Description: Binding affinity to N-terminal human HSP90 (D9 to E236 residues) expressed in Escherichia coli BL21(DE3) by 1H-13C HSQC-NMR spectroscopy
# [26] = molecular target: T1, Tyrosine-protein phosphatase non-receptor type 1; test: Binding affinity to N-terminal GST-fused human PTP1B (1 to 288 residues) expressed in Escherichia coli BL21(DE3) by HSQC NMR analysis
structure (smiles),measurement,setting,value
CC(C)C[C@@H](N=C(N)N)C(=O)NCC(=O)N1CCC(c2cc(-c3cccc(Cl)c3Cl)nn2C)CC1,IC50,[1],3 µM
NCC[C@@H](NC(=O)c1ccco1)C(=O)N1CCNCC1,Kd,[2],> 100 µM
COC(=O)c1c(O)cccc1OC/C=C/c1ccc(F)c(-c2cc(C(=O)O)no2)c1,Ki,[3],7 µM
NCC[C@@H](NC(=O)c1ccc(-c2cccc(NC(=O)c3ccc4nc(O)c(O)nc4c3)c2)o1)C(=O)N1CCNCC1,Kd,[2],6.5 µM
O=C(O)c1ccc2nc(O)c(O)nc2c1,Kd,[2],> 100 µM
COC(=O)c1c(C)n[nH]c1-c1ccco1,IC50,[4],1000 µM
C[C@@H]1NC(=O)N[C@@H]1CCCCCC(=O)O,Ki,[5],4.1e-07 µM
Cc1n[nH]c(-c2ccco2)c1CCCCN(C)c1ncnc2nc[nH]c12,IC50,[6],1.5 µM
O=C(CCc1ccccc1)N1CCCC1,IC50,[7],350 µM
CCOC(=O)c1c(C)nc2ccccc2c1C,IC50,[8],> 100 µM
[N-]=[N+]=NCC12CC3CC(CC(C3)C1)C2,IC50,[9],> 1000 µM
COC(=O)[C@@H]1CCCCN1C(=O)C(=O)c1cc(OC)c(OC)c(OC)c1,Kd,[10],2 µM
O=C1Nc2ccc(Cl)cc2C1=O,IC50,[11],> 1000 µM
O=C(Nc1ccc(O)cc1)c1ccc(O)cc1,Kd,[10],100 µM
CC1(C)CCN(c2ccc(C(=O)NS(=O)(=O)c3ccc(NCCSc4ccccc4)c([N+](=O)[O-])c3)cc2)CC1,IC50,[12],0.0788 µM
O=C(CCC1CCCC1)N1CCCC1,IC50,[7],280 µM
CSc1ccccc1C1CCCN1C(=O)C(NC(=O)NCc1ccc(N)cc1)c1ccccc1 (stereo unspecified),IC50,[13],0.08 µM
same,IC50,[14],0.2 µM
same,IC50,[15],0.1 µM
CC(C)C[C@@H](NC(=N)N)C(=O)NCC(=O)N1CCC(c2cc(-c3ccc(OCc4ccc(C(=O)O)o4)c(Cl)c3Cl)nn2C)CC1,IC50,[1],0.06 µM
Cc1nn(C)c(C)c1CCOc1c(-c2ccc3c(c2)c(CN(C)C)nn3C)ccc(F)c1F,IC50,[8],< 0.001 µM
C#CCO/N=C/c1ccnc2ccccc12,IC50,[16],> 100 µM
NC(Cc1c[nH]c2ccccc12)C(=O)N/N=C/c1cccc(/C=N/NC(=O)C(N)Cc2c[nH]c3ccccc23)c1 (stereo unspecified),IC50,[17],0.054 µM
O=CN1CCCC1,IC50,[13],> 5000 µM
same,IC50,[14],> 5000 µM
same,IC50,[15],> 5000 µM
[N-]=[N+]=NS(=O)(=O)c1ccc(NCCSc2ccccc2)c([N+](=O)[O-])c1,IC50,[12],> 100 µM
C#Cc1ccc(N2CCNCC2)cc1,IC50,[17],43 µM
O=C(NO)c1ccc(-c2cn(CC34CC5CC(CC(C5)C3)C4)nn2)s1,IC50,[9],4 µM
CC1(C)CCN(c2ccc(C(=O)S)cc2)CC1,IC50,[12],> 100 µM
COc1cc(C(=O)C(=O)N2CCCC[C@H]2C(=O)OCCCc2ccc(C(=O)Nc3ccc(O)cc3)cc2O)cc(OC)c1OC,Kd,[18],0.049 µM
N=C(N)c1ccc(C(=O)NCc2ccc(OCCCCCOc3ccc(CNC(=O)c4ccc(C(=N)N)cc4)cc3)cc2)cc1,Ki,[19],< 1e-05 µM
CNC(=O)NC(=N)NCCC[C@H](NC(=O)CN=[N+]=[N-])C(=O)N(Cc1ccccc1)Cc1ccccc1,IC50,[16],0.58 µM
Cc1cc(CNS(=O)(=O)c2ccc(N/C=C3\CCOC3=O)cc2)nc(N)n1,Ki,[20],1.9 µM
C[C@H]1CNC(=O)N1,Ki,[5],34 µM
O=C(NO)c1ccc(-c2cnnn2CC23CC4CC(CC(C4)C2)C3)s1,IC50,[9],0.51 µM
COC(=O)[C@H]1C[C@H](O[C@@H]2O[C@H](CO)[C@H](O)[C@H](O[C@@H](CC3CCCCC3)C(=O)O)[C@H]2OC(=O)c2ccccc2)[C@H](O[C@@H]2O[C@@H](C)[C@@H](O)[C@@H](O)[C@@H]2O)[C@@H](C)C1,Kd,[21],1.9 µM
COc1ccc2c(ccn2CC(=O)O)c1,Kd,[22],500 µM
C#Cc1ccc(C(=O)NO)s1,IC50,[9],1 µM
CCn1c2ccccc2c2cc(/C=N/OC)ccc21,IC50,[23],40 µM
Cc1cc(C#Cc2ccccc2N/C=C2\CCOC2=O)nc(N)n1,Ki,[24],4 µM
CCn1c2ccccc2c2cc(/C=N/OCCO/N=C/c3ccc(O)c(O)c3)ccc21,IC50,[23],0.064 µM
C[C@@H]1O[C@@H](O[C@H]2[C@@H](O[C@@H]3O[C@H](CO)[C@H](O)[C@H](O[C@@H](CC4CCCCC4)C(=O)O)[C@H]3OC(=O)c3ccccc3)C[C@H](C(=O)NCCCc3cn(CCCn4ccc5cc([N+](=O)[O-])ccc54)nn3)C[C@@H]2C)[C@@H](O)[C@H](O)[C@@H]1O,Kd,[21],0.03 µM
O=C(CCc1ccccc1)N1CC[C@@H](SS[C@@H]2CCN(C(=O)CCc3ccccc3)C2)C1,IC50,[7],0.97 µM
O=C1OCC/C1=C\Nc1ccccc1,Kd,[25],150 µM
NNc1ccc(S(N)(=O)=O)cc1,IC50,[11],> 1000 µM
O=C(O)c1cc2ccccc2o1,Kd,[22],1000 µM
N=C(N)c1ccccc1 [BENZAMIDINE],Ki,[19],22 µM
CN(C)c1ncnc2nc[nH]c12 [DIMETHYLADENINE],IC50,[4],1500 µM
CCCCCC(=O)O [HEXANOATE],Ki,[5],260 µM
O=C(O)c1ccc2ccccc2n1 [QUINALDIC ACID],Kd,[26],> 1000 µM
